# “Also recorded” adds a separate entry of the source.
# Legend:
# [1] = test system: isolated guinea pig vagal nerves; assay: Capsaicin-induced depolarization on isolated guinea pig vagal nerves (grease-gap recording)
# Method: The vagal nerve is the main afferent pathway of the cough reflex loop. Therefore, the ability—and dependence on TRPM8—of AX-8 to inhibit the capsaicin-induced depolarization on isolated guinea pig vagal nerves was assessed. The tissue was assayed using an O2/CO2 gassed, grease-gap recording system as previously described (see, e.g., Birrell et al., 2009). Briefly, after the tissue has stabilised, it was exposed to a challenge (capsaicin, 1 μM, TRPV1 agonist for 2 minutes), then washed. This was then repeated to confirm the basal response. After washing, the tissue was incubated with vehicle or AX-8 (10 nM-1 mM) for 10 minutes. Following this, the tissue was re-challenged with capsaicin (in the presence of vehicle or AX-8).
# Where the TRPM8 antagonist PF-05105679 (PF, 10 μM) was used, following the two reproducible responses to capsaicin, the nerve was incubated with the TRPM8 antagonist or vehicle (0.1% DMSO) for 10 minutes, prior to incubation with AX-8 or vehicle for 10 minutes. The nerve was then restimulated with capsaicin in the presence of PF/Vehicle and AX-8/Vehicle and the percentage of inhibition of the original response calculated. Following a wash period, the nerve was then restimulated with capsaicin to determine viability. The level of depolarization was recorded at each phase. The data were recorded as actual depolarisation levels and as a percentage inhibition (caused by the vehicle or test compound) of the mean of the initial, control recordings.
# [2] = Phase 1 study in healthy volunteers: safety and tolerability; format: in vivo, human; settings: single dose 5 mg ODT, 12 healthy subjects; no remarkable adverse events
# [3] = test system: refractory chronic cough (RCC); assay: Clinical Trial 2: Global Rating of Change Scale (GRCS); format: in vivo, human
# From the text: The GRCS was used by subjects to assess their overall status for the specified periods (the 4-hour period following dose; and the 24-hour period following dose). It consisted of a […] scale ranging from ‘a very great deal better’ to ‘a very great deal worse’.
# [4] = test system: 87 primary molecular targets including 13 enzyme and 74 binding assays; assay: Off-target pharmacology study (SafetyScreen87 assay); settings: 100 μM AX-8
# From the text: In addition, an off-target pharmacology study (SafetyScreen87 assay by Eurofins Pharma Discovery Services) has been performed. This assay package consists of 87 primary molecular targets including 13 enzyme and 74 binding assays, representing potential safety issues.
# [5] = test system: refractory chronic cough (RCC); assay: Clinical Trial 2: objective cough frequency (VitaloJAK 24-hour recording) in RCC patients; format: in vivo, human; design: Cough frequency, Ln Mean (SE), Treatment, 8 hours (GEE) / Cough frequency, Ln Mean (SE), Treatment, 4 hours (GEE) / Cough frequency, Ln Mean (SE), Treatment, 24 hours (GEE): unit not given here
# Method: The primary objective of the study was to assess the effectiveness of AX-8 (the study drug) for the treatment of RCC and associated upper airway symptoms after one dose of treatment (an orally disintegrating tablet (ODT) having 5 mg AX-8, administered orally and dissolved on the tongue) in reducing awake cough frequency compared to baseline, for the purpose of planning a future randomized controlled trial. Subjects took a single orally disintegrating tablet (ODT) with 5 mg AX-8 in the morning on the first day of the treatment period (Day 1). This Investigational Medical Product (IMP) was let to dissolve on the tongue. […] Objective cough frequency was measured as 24-hour sound recordings using a custom-built digital recording device (VitaloJAK, Vitalograph, Ltd). VitaloJAK™ is a semi-automated 24-hour ambulatory cough monitoring system (Vitalograph; Buckinghamshire, England) operating in a manner which completely replicates routine practice. The 24-hour recordings are compressed using custom designed compression software, using an algorithm. The VitaloJAK™ is a reliable, robust and efficient tool for the objective measurement of cough frequency. Importantly it reduces 24-hour recordings by up to 98% whilst preserving close to 100% of recorded cough sounds. It is worn like a Holter monitor, with a single sensor affixed to the patient's chest wall. An optional second channel via a conventional microphone (worn, for example, on the patient's shirt) allows quality assurance with human intervention. The device itself is attached on the trousers, skirt, etc. The 24-hour cough frequency (coughs per hour) for a specified visit was calculated as: 24-hour cough frequency=(total number of cough events during the monitoring period (24-hour interval))/24. Awake cough frequency=(total number of cough events during the monitoring period (24-hour interval) while the subject was awake)/(total duration (in hours) during the monitoring period (24-hour interval) that the subject was awake). Percent change in awake cough frequency=[(Change from baseline in awake cough frequency×100)/(Baseline awake cough frequency)]. The proportion of participants with ≥30% of reduction from baseline in awake cough frequency is the number of participants with ≤−30% change in awake cough frequency divided by the total number of participants with available data. For awake and asleep cough frequencies, baseline and treatment data were compared using Wilcoxon signed rank test due to the skewed nature of the data. For 24 hour-, 8 hour-, and 4 hour-cough frequencies, baseline and treatment data were compared using General Estimating Equations (GEE) models. Prior to analysis, these cough count data were natural log (Ln) transformed in order to normalise the distribution of the data. As some individual hourly cough counts were zero, 0.1 was added to all values prior to transformation.
# [6] = single 5 mg AX-8 ODT, treatment vs baseline
smiles,measurement,setting,value
"CC(C)OC(=O)CNC(=O)[C@@H]1C[C@H](C)CC[C@H]1C(C)C [AX-8, [((1R,2S,5R)-2-isopropyl-5-methyl-cyclohexanecarbonyl)-amino]-acetic acid isopropyl ester]",inhibition of the capsaicin-induced response in the presence of TRPM8 antagonist PF-05105679,"[1]; AX-8 1 μM, PF-05105679 10 μM pre-incubated 10 min, n=4",suppressed by pre-application of the TRPM8 antagonist PF-05105679; also recorded: blocked by the selective TRPM8 inhibitor PF-05105679
same,inhibition of the capsaicin-induced response (maximum),"[1]; capsaicin 1 μM, AX-8 10 nM-1 mM, 10 min incubation, n=3",up to 80%
same,inhibition of the capsaicin-induced response versus concentration,"[1]; capsaicin 1 μM, n=3",blocked in a dose-dependent manner
same,safety and tolerability,[2],well tolerated
same,"GRCS Cough Frequency: patients rating about the same, n (%)","[3]; 4 hours after treatment, n=12",7 (58.3%)
same,"GRCS Cough Frequency: patients rating better, n (%)","[3]; 4 hours after treatment, n=12",4 (33.3%)
same,"GRCS Cough Frequency: patients rating worse, n (%)","[3]; 4 hours after treatment, n=12",1 (8.3%)
same,"GRCS Cough Severity: patients rating about the same, n (%)","[3]; 4 hours after treatment, n=12",6 (50%)
same,"GRCS Cough Severity: patients rating better, n (%)","[3]; 4 hours after treatment, n=12",5 (41.7%)
same,"GRCS Cough Severity: patients rating worse, n (%)","[3]; 4 hours after treatment, n=12",1 (8.3%)
same,"GRCS Cough Frequency: patients rating about the same, n (%)","[3]; 24 hours after treatment, n=11",6 (54.5%)
same,"GRCS Cough Frequency: patients rating better, n (%)","[3]; 24 hours after treatment, n=11",4 (36.4%)
same,"GRCS Cough Frequency: patients rating worse, n (%)","[3]; 24 hours after treatment, n=11",1 (9.1%)
same,"GRCS Cough Severity: patients rating about the same, n (%)","[3]; 24 hours after treatment, n=11",6 (54.5%)
same,"GRCS Cough Severity: patients rating better, n (%)","[3]; 24 hours after treatment, n=11",4 (36.4%)
same,"GRCS Cough Severity: patients rating worse, n (%)","[3]; 24 hours after treatment, n=11",1 (9.1%)
same,responses in SafetyScreen87 off-target panel,[4],No significant responses were observed
same,subjects with ≥30% reduction in 24-hour cough frequency per hour,[5]; 4/12 subjects,33.3%
same,subjects with ≥30% reduction in awake cough frequency per hour,[5]; 4/12 subjects,33.3%
same,subjects with ≥30% reduction in 4-hour cough frequency per hour,[5]; 5/12 subjects,41.7%
same,subjects with ≥30% reduction in 8-hour cough frequency per hour,[5]; 7/12 subjects,58.3%
same,"Treatment ratio, 24 hours (GEE)","[5]; 95% CI −0.53 to 0.20, p=0.368",−0.166
same,reduction in cough frequency during sleep,"[5]; from 7.1 to 3.7, may not be statistically significant",48%
same,reduction in cough frequency during waking hours,[5]; from 64.1 to 54.8,14.5%
same,"Cough frequency, Ln Mean (SE), Treatment, 24 hours (GEE)","[5]; natural log transformed, 0.1 added, baseline 2.87 (0.19)",2.70 (0.33)
same,"Cough frequency, Ln Mean (SE), Treatment, 8 hours (GEE)","[5]; natural log transformed, 0.1 added, baseline 3.72 (0.22)",3.26 (0.39)
same,"Cough frequency, Ln Mean (SE), Treatment, 4 hours (GEE)","[5]; natural log transformed, 0.1 added, baseline 3.92 (0.19)",3.38 (0.39)
same,"Treatment ratio (95% CI), 8 hours (GEE)",[5]; p=0.033,−0.461 (−0.88 to −0.04)
same,"Treatment ratio (95% CI), 4 hours (GEE)",[5]; p=0.047,−0.54 (−1.08 to −0.01)
same,"Cough frequency, Median, Treatment, Asleep","[5]; single 5 mg AX-8 ODT, n=12, baseline 7.1, p=0.272 Wilcoxon",3.7 (0.6-17.5) coughs/hour
same,"Cough frequency, Median, Treatment, 24 hours","[5]; single 5 mg AX-8 ODT, n=12, baseline 48.1",44.3 coughs/hour
same,"Cough frequency, Median, Treatment, Awake","[5]; single 5 mg AX-8 ODT, n=12, baseline 64.1, p=0.034 Wilcoxon",54.8 (16.4-79.5) coughs/hour
same,"Cough frequency, Median, Treatment, 4 hours","[5]; single 5 mg AX-8 ODT, n=12, baseline 71.0",53.4 coughs/hour
same,"Cough frequency, Median, Treatment, 8 hours","[5]; single 5 mg AX-8 ODT, n=12, baseline 75.5",45.4 coughs/hour
same,"Cough frequency, Change of median, 4 hours",[5]; [6],−24.8%
same,"Cough frequency, Change of median, 8 hours",[5]; [6],−39.9%
same,"Cough frequency, Change of median, 24 hours",[5]; [6],−7.90%
same,"Cough frequency, Change of median, Asleep",[5]; [6],−47.9%
same,"Cough frequency, Change of median, Awake",[5]; [6],−14.5%
same,"Percentage Change, 8 hours (GEE)","[5]; treatment vs baseline, p=0.033",−36.9%
same,"Percentage Change, 4 hours (GEE)","[5]; treatment vs baseline, p=0.047",−42.0%
same,"Percentage Change, 24 hours (GEE)","[5]; treatment vs baseline, p=0.368",−15.3%
